Molecules are shown by their SMILES.

The test system of the first series is human non small cell lung cancer cell line H460. As to the kind of experiment: Antiproliferation (cytotoxicity) assay, 72 hrs under air, Alamar Blue. Type of series: cell-based. The conditions noted are these: H460, inhibition of proliferation, 72 hrs under air; read-out: IC50. Background: Resazurin is reduced to fluorescent resorufin, in cell work by metabolically active cells.
As for `CC[C@@]1(O)C(=O)OCc2c1cc1n(c2=O)Cc2cc3ccccc3nc2-1` [Camptothecin, reference compound], the IC50 (usually the concentration needed to halve the response being measured) came out at 14 nM.

Still in this series, the particulars now being: Homo sapiens, NCI-H460, 72 h.
`CC[C@@]1(O)C(=O)OCc2c1c([N+](=O)[O-])c1n(c2=O)Cc2c-1nc1ccccc1c2CO[N+](=O)[O-]` [TH1598] displayed an IC50 of 89 nM.

Staying with this series, now noted: Homo sapiens, NCI-H460; H460, inhibition of proliferation, 72 hrs under air; read-out: IC50.
Regarding `CC[C@@]1(O)C(=O)OCc2c1c([N+](=O)[O-])c1n(c2=O)Cc2cc3c([N+](=O)[O-])cccc3nc2-1` [TH1385], the IC50 was > 1000 nM.

With `CC[C@@]1(O)C(=O)OCc2c1c([N+](=O)[O-])c1n(c2=O)Cc2c-1nc1ccccc1c2/C=N/OCCN(C)C` [TH1522], the IC50 is > 1000 nM.

In the case of `CC[C@@]1(O)C(=O)OCc2c1c([N+](=O)[O-])c1n(c2=O)Cc2c-1nc1cccc([N+](=O)[O-])c1c2/C=N/OCCN1CCOCC1` [TH1523], the IC50 stood at 830 nM.

With `CC[C@@]1(O)C(=O)OCc2c1c([N+](=O)[O-])c1n(c2=O)Cc2c-1nc1ccccc1c2/C=N/OCCN1CCCCC1` [TH1524], the IC50 is > 1000 nM.

`CC[C@@]1(O)C(=O)OCc2c1c([N+](=O)[O-])c1n(c2=O)Cc2c-1nc1cccc([N+](=O)[O-])c1c2/C=N/OCCN1CCCCC1` [TH1525]: the IC50 is > 1000 nM.

For the compound `CC[C@@]1(O)C(=O)OCc2c1c(N)c1n(c2=O)Cc2c-1nc1ccccc1c2CO` [TH1599], the IC50 turned out to be 4.3 nM.

`CC[C@@]1(O)C(=O)OCc2c1c([N+](=O)[O-])c1n(c2=O)Cc2c-1nc1ccccc1c2CC[Si](C)(C)C` [TH1626]: the IC50 was > 1000 nM.

With `CC[C@@]1(O)C(=O)OCc2c1c([N+](=O)[O-])c1n(c2=O)Cc2c-1nc1ccccc1c2CC[Si](C)(C)O` [TH1627], the IC50 was > 1000 nM.

In the case of `CC[C@@]1(O)C(=O)OCc2c1c(N)c1n(c2=O)Cc2c-1nc1ccccc1c2CC[Si](C)(C)O` [TH1628], the IC50 worked out at 62 nM.

Turning to `CC[C@@]1(O)C(=O)OCc2c1c(N)c1n(c2=O)Cc2c-1nc1ccccc1c2CC[Si](C)(C)C` [TH1631], the IC50 is 7.4 nM.

With `CC[C@@]1(O)C(=O)OCc2c1c([N+](=O)[O-])c1n(c2=O)Cc2c-1nc1cccc([N+](=O)[O-])c1c2Br` [TH1636], the IC50 came out at 6200 nM.

Consider `CC[C@@]1(O)C(=O)OCc2c1c(N)c1n(c2=O)Cc2c-1nc1ccccc1c2CC(C)(C)C` [TH1643], for which the IC50 was 43 nM.

For the compound `CC[C@@]1(O)C(=O)OCc2c1c([N+](=O)[O-])c1n(c2=O)Cc2c-1nc1ccccc1c2CC(C)(C)C` [TH1644], the IC50 is 800 nM.

Take `CCCc1c2c(nc3ccccc13)-c1c([N+](=O)[O-])c3c(c(=O)n1C2)COC(=O)[C@]3(O)CC` [TH1650]: the IC50 was found to be 685 nM.

On to `CC[C@@]1(O)C(=O)OCc2c1c([N+](=O)[O-])c1n(c2=O)Cc2c-1nc1ccccc1c2C=O` [TH1762, 7-formyl-14-nitro camptothecin], for which the IC50 turned out to be 7200 nM.

`CC[C@@]1(O)C(=O)OCc2c1c([N+](=O)[O-])c1n(c2=O)Cc2c-1nc1ccccc1c2C#N` [TH1766]: the IC50 is > 1000 nM.

In the case of `CC[C@@]1(O)C(=O)OCc2c1c([N+](=O)[O-])c1n(c2=O)Cc2c-1nc1ccccc1c2/C=N/N1CCOCC1` [TH1767], the IC50 is 6000 nM.

`CC[C@@]1(O)C(=O)OCc2c1c([N+](=O)[O-])c1n(c2=O)Cc2c-1nc1ccccc1c2/C=N/NCCO` [TH1768]: the IC50 is 6600 nM.

Turning to `CC[C@@]1(O)C(=O)OCc2c1c(N)c1n(c2=O)Cc2c-1nc1ccccc1c2CN` [TH1769], the IC50 came out at 330 nM.

`CC[C@@]1(O)C(=O)OCc2c1c([N+](=O)[O-])c1n(c2=O)Cc2c-1nc1ccccc1c2/C=C/N1CCN(C)CC1` [TH1770]: the IC50 was determined as 9100 nM.

For `C=CCO/N=C/c1c2c(nc3ccccc13)-c1c([N+](=O)[O-])c3c(c(=O)n1C2)COC(=O)[C@]3(O)CC` [TH1771], the IC50 was > 10000 nM.

Turning to `CC[C@@]1(O)C(=O)OCc2c1c(N)c1n(c2=O)Cc2c-1nc1ccccc1c2/C=N/N1CCN(C)CC1` [TH1775], the IC50 was 26 nM.

Turning to `CC[C@@]1(O)C(=O)OCc2c1c([N+](=O)[O-])c1n(c2=O)Cc2c-1nc1ccccc1c2/C=N/OCC1CO1` (some centres unmarked) [TH1776], the IC50 was found to be 3200 nM.

Take `CC[C@@]1(O)C(=O)OCc2c1c(N)c1n(c2=O)Cc2c-1nc1ccccc1c2/C=N/N1CCOCC1` [TH1777]: the IC50 was found to be 16 nM.

`CC[C@@]1(O)C(=O)OCc2c1c(N)c1n(c2=O)Cc2c-1nc1ccccc1c2/C=N/NCCO` [TH1778]: the IC50 came out at 270 nM.

Regarding `CC[C@@]1(O)C(=O)OCc2c1c([N+](=O)[O-])c1n(c2=O)Cc2c-1nc1ccccc1c2/C=N/N(CCO)C(C)=O` [TH1780], the IC50 came out at 28000 nM.

As to `CCOC(=O)/C=C/c1c2c(nc3ccccc13)-c1c([N+](=O)[O-])c3c(c(=O)n1C2)COC(=O)[C@]3(O)CC` [TH1781], the IC50 was found to be 28000 nM.

As for `CC[C@@]1(O)C(=O)OCc2c1c(N)c1n(c2=O)Cc2c-1nc1ccccc1c2/C=N/N(CCO)C(C)=O` [TH1783], the IC50 was 460 nM.

Turning to `CC[C@@]1(O)C(=O)OCc2c1c([N+](=O)[O-])c1n(c2=O)Cc2c-1nc1ccccc1c2/C=C/C(C)=O` [TH1784], the half-maximal inhibitory concentration (IC50) stood at 4900 nM.

For `CC[C@@]1(O)C(=O)OCc2c1c(N)c1n(c2=O)Cc2c-1nc1ccccc1c2C(OC)OC` [TH1785], the IC50 came to 39 nM.

For `CC[C@@]1(O)C(=O)OCc2c1c([N+](=O)[O-])c1n(c2=O)Cc2c-1nc1ccccc1c2/C=C/C(=O)OC(C)(C)C` [TH1786], the IC50 was determined as 21000 nM.

`CCOC(=O)CCc1c2c(nc3ccccc13)-c1c(N)c3c(c(=O)n1C2)COC(=O)[C@]3(O)CC` [TH1787]: the IC50 was 12 nM.

Turning to `CCOC(=O)/C=C/c1c2c(nc3ccccc13)-c1c(N)c3c(c(=O)n1C2)COC(=O)[C@]3(O)CC` [TH1789], the IC50 came to 31 nM.

For the compound `CC[C@@]1(O)C(=O)OCc2c1c(N)c1n(c2=O)Cc2c-1nc1ccccc1c2CCC(=O)OC(C)(C)C` [TH1790], the IC50 worked out at 46 nM.

As for `CC[C@@]1(O)C(=O)OCc2c1c([N+](=O)[O-])c1n(c2=O)Cc2c-1nc1ccccc1c2/C=N/N(CCO)C(=O)C(C)(C)C` [TH1791], the IC50 is 4000 nM.

On to `CC[C@@]1(O)C(=O)OCc2c1c(N)c1n(c2=O)Cc2c-1nc1ccccc1c2/C=N/N(CCO)C(=O)C(C)(C)C` [TH1793], for which the IC50 worked out at 19 nM.

In the case of `CC[C@@]1(O)C(=O)OCc2c1c([N+](=O)[O-])c1n(c2=O)Cc2c-1nc1ccccc1c2/C=N/N(CCO)C(=O)C(C)C` [TH1794], the IC50 was 2300 nM.

In the case of `CC[C@@]1(O)C(=O)OCc2c1c(N)c1n(c2=O)Cc2c-1nc1ccccc1c2/C=N/N(CCO)C(=O)C(C)C` [TH1796], the IC50 was determined as 12 nM.

As for `CC[C@@]1(O)C(=O)OCc2c1c([N+](=O)[O-])c1n(c2=O)Cc2c-1nc1ccccc1c2/C=N/N(CCO)C(=O)c1ccccc1` [TH1797], the IC50 is 40000 nM.

For `CC[C@@]1(O)C(=O)OCc2c1c([N+](=O)[O-])c1n(c2=O)Cc2c-1nc1ccccc1c2/C=N/N(CCOS(C)(=O)=O)S(C)(=O)=O` [TH1798], the IC50 was 2500 nM.

For `CC[C@@]1(O)C(=O)OCc2c1c(N)c1n(c2=O)Cc2c-1nc1ccccc1c2/C=N/N(CCOS(C)(=O)=O)S(C)(=O)=O` [TH1799], the IC50 worked out at 8.1 nM.

Turning to `CC[C@@]1(O)C(=O)OCc2c1c(N)c1n(c2=O)Cc2c-1nc1ccccc1c2/C=N/N(CCO)C(=O)c1ccccc1` [TH1800], the IC50 was found to be 220 nM.

For the compound `CC[C@@]1(O)C(=O)OCc2c1c(N)c1n(c2=O)Cc2c-1nc1ccccc1c2C#N` [TH1801], the IC50 came out at 23 nM.

Consider `CC[C@@]1(O)C(=O)OCc2c1c([N+](=O)[O-])c1n(c2=O)Cc2c-1nc1ccccc1c2/C=N/c1ccccc1O` [TH1803], for which the half-inhibitory concentration (IC50) is 3600 nM.

`CC[C@@]1(O)C(=O)OCc2c1c([N+](=O)[O-])c1n(c2=O)Cc2c-1nc1ccccc1c2/C=N/c1ccc(C(C)(C)C)cc1` [TH1804]: the IC50 was > 50000 nM.

For `CC[C@@]1(O)C(=O)OCc2c1c([N+](=O)[O-])c1n(c2=O)Cc2c-1nc1ccccc1c2/C=N/c1c(F)c(F)c(O)c(F)c1F` [TH1805], the IC50 came out at 49000 nM.

`CC[C@@]1(O)C(=O)OCc2c1c(N)c1n(c2=O)Cc2c-1nc1ccccc1c2/C=N/c1ccc(C(C)(C)C)cc1` [TH1809]: the IC50 was 1400 nM.

Consider `CC[C@@]1(O)C(=O)OCc2c1c(N)c1n(c2=O)Cc2c-1nc1ccccc1c2/C=C/C(=O)OC(C)(C)C` [TH1811], for which the IC50 was determined as 14 nM.

`CC[C@@]1(O)C(=O)OCc2c1c([N+](=O)[O-])c1n(c2=O)Cc2c-1nc1ccccc1c2/C=N/N1CCOCOC1` [TH1812]: the IC50 is 2800 nM.

Regarding `CC[C@@]1(O)C(=O)OCc2c1c(N)c1n(c2=O)Cc2c-1nc1ccccc1c2CNCC(C)(C)C` [TH1814], the IC50 amounted to 15 nM.

On to `CC[C@@]1(O)C(=O)OCc2c1c(N)c1n(c2=O)Cc2c-1nc1ccccc1c2/C=N/N1CCOCOC1` [TH1816], for which the IC50 was 23 nM.

In a further series the test system is BCRP, which over expressed the breast cancer resistance protein. As to the kind of experiment: Efflux pump drug resistance, antiproliferation assay, BCRP over expressing line. Conditions: ratio of IC50s, BCRP versus pcDNA. Here is the method:
The compounds were screened for cytotoxicity using human non small cell lung cancer cell line H460. […]
Cellular drug resistance was determined using the antiproliferation assay described above.
Consider `CC[C@@]1(O)C(=O)OCc2c1cc1n(c2=O)Cc2cc3ccccc3nc2-1` [Camptothecin, reference compound], for which the “ratio BCRP over expressing line versus the parent cell line” value is given as 1.6.

The subject of another series is human non small cell lung cancer H-460. The series is described as follows: Xenograft model, subcutaneous, tumor growth inhibition and body weight loss. Conditions: H460, PO, QD × 5/wk, 2 weeks, 40 mg/Kg. On the procedure:
The first three models were produced by subcutaneous implantation of the appropriate number of cells into the flank of the animals. When tumor size was approximately 150 mm^3, animals were randomized into groups of 10 mice each for dosing. One arm was dosed with only vehicle and the results used for the efficacy calculations. […] TGI=(1−T/C) %. T/C ratio was calculated as T/C=(Tn−Ti)/(Cn−Ci), where Tn is tumor volume in treatment group on Day n, and Ti is the initial tumor volume in the treatment group. Cn is the tumor volume of the vehicle group on the last day of measurement. Ci is the initial tumor volume in the vehicle control group. Day n is the last measurement taken when all the animals in the vehicle group were not yet euthanized. Animals were euthanized when tumor volumes grew larger than 2000 mm^3.
On to `CCCc1c2c(nc3ccccc13)-c1c([N+](=O)[O-])c3c(c(=O)n1C2)COC(=O)[C@]3(O)CC` [TH1650], for which the “TGI (%)” value is 85%.

The same series, now with this note: mouse, in vivo, po, 40 mg/kg.
For `CCCc1c2c(nc3ccccc13)-c1c([N+](=O)[O-])c3c(c(=O)n1C2)COC(=O)[C@]3(O)CC` [TH1650], the “Max. BWL (%)” value turned out to be 6.7%.

System in a further series: not listed separately
The series is described as follows: In vivo pharmacokinetics, oral gavage. Conditions: CD-mice, oral gavage.
Procedure: The data normalized to a 50 mg/kg dose are shown below (compounds were dosed at either 25 or 50 mg/kg).
`CC[C@@]1(O)C(=O)OCc2c1cc1n(c2=O)Cc2cc3ccccc3nc2-1` [Camptothecin, reference compound]: the half-life (usually how long it takes for the measured level to halve) turned out to be 1.98 h.

The same series, now with this note: CD-mice, oral gavage, 5% DMSO, 5% Tween 80 suspension in water, normalized to a 50 mg/kg dose.
`CC[C@@]1(O)C(=O)OCc2c1cc1n(c2=O)Cc2cc3ccccc3nc2-1` [Camptothecin, reference compound]: the Cmax (commonly the highest concentration seen after dosing) is 374 ng/mL.

Staying with this series, now noted: CD-mice, oral gavage, normalized to a 50 mg/kg dose.
For `CC[C@@]1(O)C(=O)OCc2c1cc1n(c2=O)Cc2cc3ccccc3nc2-1` [Camptothecin, reference compound], the AUC (usually concentration integrated over time) turned out to be 58.1 µg·min/mL.

The record behind these values is patent publication US8575188B2 (priority 2009, dated 2013).
